Reference: ChEMBL document CHEMBL4251700, “Novel Staphyloxanthin Inhibitors with Improved Potency against Multidrug Resistant Staphylococcus aureus” (ACS Med Chem Lett, 2018)
Substitutions are numbered along the chain they refer to.

Assays:
[1] = biological target: T1, 4,4'-diapophytoene desaturase (4,4'-diaponeurosporene-forming) (Staphylococcus aureus (strain Newman), UniProt O07855); experiment: Inhibition of CrtN in Staphylococcus aureus Newman assessed as reduction in staphyloxanthin levels after 48 hrs by spectrophotometric method-based pigment inhibition assay; set-up: species or system Staphylococcus aureus subsp. aureus str. Newman
T1 sequence (O07855 whole entry): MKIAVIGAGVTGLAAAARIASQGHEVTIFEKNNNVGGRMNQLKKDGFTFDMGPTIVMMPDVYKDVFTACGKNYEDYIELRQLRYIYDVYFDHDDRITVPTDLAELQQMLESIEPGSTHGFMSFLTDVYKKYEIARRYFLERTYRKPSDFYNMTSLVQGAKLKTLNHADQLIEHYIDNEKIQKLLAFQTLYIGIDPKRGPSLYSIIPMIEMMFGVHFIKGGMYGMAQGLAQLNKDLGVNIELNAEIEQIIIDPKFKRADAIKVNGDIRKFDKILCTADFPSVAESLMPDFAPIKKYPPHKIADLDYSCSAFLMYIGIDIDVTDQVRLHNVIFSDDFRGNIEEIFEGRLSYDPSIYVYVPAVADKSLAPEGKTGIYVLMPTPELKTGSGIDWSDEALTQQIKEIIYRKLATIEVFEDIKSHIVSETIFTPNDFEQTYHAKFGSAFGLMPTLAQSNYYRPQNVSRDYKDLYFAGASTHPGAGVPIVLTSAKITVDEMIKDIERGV

[2] = Cytotoxicity against human HepG2 cells after 72 hrs by CCK8 assay; type: cell-based
[3] = Cytotoxicity against HEK293T cells after 72 hrs by CCK8 assay; type: cell-based, HEK-293T; details: human
[4] = Solubility of the compound in water at 10 mg measured after 24 hrs by HPLC method; type: physicochemical
[5] = biological target: T2, 4,4'-diapophytoene desaturase (4,4'-diaponeurosporene-forming) (Staphylococcus aureus (strain MW2), UniProt Q8NUQ6); experiment: Inhibition of CrtN in methicillin-resistant Staphylococcus aureus LAC USA300 assessed as reduction in staphyloxanthin levels after 48 hrs by spectrophotometric method-based pigment inhibition assay; set-up: species or system Staphylococcus aureus subsp. aureus USA300
T2 sequence (Q8NUQ6 whole entry): T1 sequence (O07855 whole entry) with R500Q

[6] = biological target: T3, 4,4'-diapophytoene desaturase (4,4'-diaponeurosporene-forming) (Staphylococcus aureus (strain Mu50 / ATCC 700699), UniProt Q99R76); experiment: Inhibition of CrtN in vancomycin-intermediate Staphylococcus aureus Mu50 assessed as reduction in staphyloxanthin levels after 48 hrs by spectrophotometric method-based pigment inhibition assay; set-up: species or system Staphylococcus aureus subsp. aureus Mu50
T3 sequence (Q99R76 whole entry): T1 sequence (O07855 whole entry)

[7] = biological target: T2, 4,4'-diapophytoene desaturase (4,4'-diaponeurosporene-forming); experiment: Inhibition of CrtN in methicillin-resistant Staphylococcus aureus USA400 MW2 assessed as reduction in staphyloxanthin levels after 48 hrs by spectrophotometric method-based pigment inhibition assay; set-up: species or system Staphylococcus aureus subsp. aureus MW2
[8] = biological target: T1, 4,4'-diapophytoene desaturase (4,4'-diaponeurosporene-forming); experiment: Inhibition of CrtN in linezolid-resistant Staphylococcus aureus NRS271 assessed as reduction in staphyloxanthin levels after 48 hrs by spectrophotometric method-based pigment inhibition assay
[9] = biological target: T1, 4,4'-diapophytoene desaturase (4,4'-diaponeurosporene-forming); experiment: Inhibition of Staphylococcus aureus Newman […]-tagged CrtN expressed in Escherichia coli BL21(DE3))/pET28a::CrtN assessed as reduction in staphyloxanthin levels using diapophytoene as substrate after overnight incubation; set-up: species or system Staphylococcus aureus subsp. aureus str. Newman
[10] = biological target: Voltage-gated inwardly rectifying potassium channel KCNH2 (Homo sapiens, UniProt Q12809); experiment: Inhibition of recombinant human ERG expressed in CHO cells at -80 mV holding potential measured after 3 minutes by automated whole cell patch clamp Qpatch method; type: cell-based
Chain of Voltage-gated inwardly rectifying potassium channel KCNH2 (Q12809 whole entry): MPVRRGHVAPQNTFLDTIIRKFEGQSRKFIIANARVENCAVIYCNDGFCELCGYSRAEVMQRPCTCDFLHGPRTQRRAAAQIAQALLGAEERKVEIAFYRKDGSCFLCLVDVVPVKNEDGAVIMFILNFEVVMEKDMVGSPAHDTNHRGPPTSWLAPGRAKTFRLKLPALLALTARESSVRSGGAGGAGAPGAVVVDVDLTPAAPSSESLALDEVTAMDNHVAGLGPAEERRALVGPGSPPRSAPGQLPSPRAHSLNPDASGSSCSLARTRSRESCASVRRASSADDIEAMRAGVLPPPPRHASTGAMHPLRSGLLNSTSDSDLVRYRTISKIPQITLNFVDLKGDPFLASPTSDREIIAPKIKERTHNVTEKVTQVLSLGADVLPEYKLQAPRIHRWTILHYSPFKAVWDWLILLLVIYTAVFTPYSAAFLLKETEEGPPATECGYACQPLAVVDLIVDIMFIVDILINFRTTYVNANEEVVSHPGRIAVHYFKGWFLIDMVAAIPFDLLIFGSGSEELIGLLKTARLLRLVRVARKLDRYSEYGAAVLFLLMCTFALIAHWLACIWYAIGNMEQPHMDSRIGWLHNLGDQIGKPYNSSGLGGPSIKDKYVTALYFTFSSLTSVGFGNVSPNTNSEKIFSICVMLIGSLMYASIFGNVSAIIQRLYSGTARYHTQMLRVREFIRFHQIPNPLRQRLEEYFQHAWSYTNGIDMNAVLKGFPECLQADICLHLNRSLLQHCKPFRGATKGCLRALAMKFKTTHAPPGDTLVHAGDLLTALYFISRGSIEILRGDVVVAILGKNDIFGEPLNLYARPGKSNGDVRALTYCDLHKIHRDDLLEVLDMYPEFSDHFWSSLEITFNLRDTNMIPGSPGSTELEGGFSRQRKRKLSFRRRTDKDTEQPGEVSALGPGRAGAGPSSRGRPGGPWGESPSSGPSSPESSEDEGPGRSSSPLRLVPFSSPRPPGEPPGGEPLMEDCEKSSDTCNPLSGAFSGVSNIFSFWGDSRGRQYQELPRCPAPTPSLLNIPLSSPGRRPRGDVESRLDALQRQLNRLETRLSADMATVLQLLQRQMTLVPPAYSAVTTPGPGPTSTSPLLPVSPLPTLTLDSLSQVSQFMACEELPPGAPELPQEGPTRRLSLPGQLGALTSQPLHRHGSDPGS

Structure (SMILES)	IC50 [1] [µM]	other results
CN(C/C=C/c1ccccc1)Cc1ccc2c(c1)OCCO2	0.371	
CN(C/C=C/c1ccccc1[N+](=O)[O-])Cc1ccc2c(c1)OCCO2	> 1	
CN(C/C=C/c1ccc(Cl)cc1Cl)Cc1ccc2c(c1)OCCO2	0.015	
CN(C/C=C/c1ccc(C(C)(C)C)cc1)Cc1ccc2c(c1)OCCO2	0.156	
CN(C/C=C/c1cccc([N+](=O)[O-])c1)Cc1ccc2c(c1)OCCO2	> 1	
Cc1cccc(/C=C/CN(C)Cc2ccc3c(c2)OCCO3)c1	0.0434	
C[C@@H]1[C@H](O)[C@@H](C)/C=C/C=C/C=C/C=C/C=C/C=C/C=C/[C@H](O[C@@H]2O[C@H](C)[C@@H](O)[C@H](N)[C@@H]2O)C[C@@H]2O[C@](O)(C[C@@H](O)C[C@@H](O)[C@H](O)CC[C@@H](O)C[C@@H](O)CC(=O)O[C@H]1C)C[C@H](O)[C@H]2C(=O)O [AMPHOTERICIN B]		CC50 at 72 h [2]: 37.8 µM; CC50 at 72 h [3]: 27.5 µM
CN(C/C=C/c1cccc(Cl)c1)Cc1ccc2c(c1)OCCO2	0.112	
CN(C/C=C/c1ccc(C#N)cc1)Cc1ccc2c(c1)OCCO2	0.0192	
CN(C/C=C/c1ccccc1C(F)(F)F)Cc1ccc2c(c1)OCCO2	> 1	
CN(C/C=C/c1ccc(Cl)cc1)Cc1ccc2c(c1)OCCO2	0.0067	
CN(C/C=C/c1ccc(-c2ccccc2)cc1)Cc1ccc2c(c1)OCCO2	0.0041	
COc1ccc(/C=C/CN(C)Cc2ccc3c(c2)OCCO3)cc1	0.0486	
CN(C/C=C/C1CCCC1)Cc1ccc2c(c1)OCCO2	0.321	
CN(C/C=C/c1cccs1)Cc1ccc2c(c1)OCCO2	0.221	
Cc1ccccc1/C=C/CN(C)Cc1ccc2c(c1)OCCO2	> 1	
COc1ccccc1/C=C/CN(C)Cc1ccc2c(c1)OCCO2	> 1	
CN(C/C=C/c1ccc(C(F)(F)F)cc1)Cc1ccc2c(c1)CCCC2.Cl		solubility at 24 h [4]: 690 µg/mL
CN(C/C=C/C=C/C=C/c1ccc(C(F)(F)F)cc1)Cc1ccc2c(c1)OCCO2.Cl	0.0016	IC50 [5]: 0.0037 µM; IC50 [6]: 0.0012 µM; IC50 [7]: 0.0053 µM; solubility at 24 h [4]: 3300 µg/mL; IC50 [8]: 0.0004 µM; IC50 [9]: 0.258 µM; IC50 [10]: 8.7 µM
CN(C/C=C/c1ccc(Br)cc1)Cc1ccc2c(c1)OCCO2	0.0082	
COc1cccc(/C=C/CN(C)Cc2ccc3c(c2)OCCO3)c1	> 1	
